According to patent publication US7268152B2, “Glucocorticoid mimetics, methods of making them, pharmaceutical compositions, and uses thereof” (Boehringer Ingelheim Pharmaceuticals, Inc., priority 2002, dated 2007):

What was measured:
[1] = tested on: glucocorticoid receptor; test: One or more of the above assays (GR binding and GR cell assays; not specified which); type: cell-based; conditions: in one or more of the above assays
[2] = target: T1, human glucocorticoid receptor (GR) complex (Homo sapiens, UniProt P04150); test: Glucocorticoid receptor competitive binding assay (fluorescence polarization); conditions: competition with TAMRA-labeled dexamethasone
T1 construct: made in house; host or cells: insect expression system (baculovirus lysate)
T1 sequence (P04150 1-777): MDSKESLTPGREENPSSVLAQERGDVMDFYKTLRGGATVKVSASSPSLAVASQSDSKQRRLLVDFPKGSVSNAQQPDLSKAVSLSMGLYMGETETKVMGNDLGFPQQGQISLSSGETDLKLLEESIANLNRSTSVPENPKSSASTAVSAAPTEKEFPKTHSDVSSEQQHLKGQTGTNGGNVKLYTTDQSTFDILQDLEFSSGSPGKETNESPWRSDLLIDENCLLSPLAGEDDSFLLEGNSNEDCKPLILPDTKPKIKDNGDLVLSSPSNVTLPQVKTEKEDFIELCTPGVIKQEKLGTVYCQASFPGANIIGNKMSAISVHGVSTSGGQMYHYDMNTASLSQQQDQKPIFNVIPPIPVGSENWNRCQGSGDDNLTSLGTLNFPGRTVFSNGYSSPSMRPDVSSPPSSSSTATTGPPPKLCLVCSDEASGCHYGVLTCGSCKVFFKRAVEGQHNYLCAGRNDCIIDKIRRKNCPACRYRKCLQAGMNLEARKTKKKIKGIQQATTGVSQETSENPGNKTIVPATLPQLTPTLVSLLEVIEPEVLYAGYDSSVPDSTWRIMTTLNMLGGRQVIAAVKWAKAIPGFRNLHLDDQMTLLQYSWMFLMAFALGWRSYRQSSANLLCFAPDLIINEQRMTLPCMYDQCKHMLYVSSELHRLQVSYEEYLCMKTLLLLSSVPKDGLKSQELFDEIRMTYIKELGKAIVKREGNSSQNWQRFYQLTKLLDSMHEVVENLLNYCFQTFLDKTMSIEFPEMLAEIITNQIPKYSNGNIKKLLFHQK
How it was run: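 FP competition against 15 nM TAMRA-labeled dexamethasone (stock added) for GR complex in baculovirus insect-cell lysate, buffer 10 mM TES, 50 mM KCl, 20 mM molybdate, pH 7.4 with 1 mM DTT. Incubated 1 h at room temperature, read at ex 550/em 580 nm; IC50 from 4-parameter logistic fit.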

Row | IC50 [2] [nM] | SMILES | activity as agonists of the glucocorticoid receptor function [1] | melting point [°C]
1 | ≤ 100 | CC(C)(CC(O)(Cc1cc(C(F)(F)F)cc(Cl)c1F)C(F)(F)F)c1cccc2ccoc12 (stereo not drawn) [4-Benzofuran-7-yl-2-(3-chloro-2-fluoro-5-trifluoromethylbenzyl)-1,1,1-trifluoro-4-methylpentan-2-ol] | activity as agonists | 
2 |  | COc1ccc(F)cc1C(C)(C)CC(O)(Cc1cc(C)cc(C)c1C#N)C(F)(F)F (stereo not drawn) [Example 32, 2-[4-(5-fluoro-2-methoxyphenyl)-2-hydroxy-4-methyl-2-trifluoromethylpentyl]-4,6-dimethylbenzonitrile] |  | 134 to 136
